From US20260209196A1, “AMIDINOUREA DERIVATIVES AND THEIR USE IN THE TREATMENT OF CANCER” (UNIVERSITE COTE D'AZUR, priority 2022, published 2026)
Like-named read-outs stand apart in the source and are kept apart here.

Columns and labels:
Format in all cases: cell-based
[1] = system: normal human melanocytes; assay: Toxicity on normal human melanocytes by Trypan blue counting; conditions: FIG. 3
Description: Normal human melanocytes were obtained from the foreskins of Caucasian children and grown in MCDB 153 medium supplemented with 2% fetal calf serum, 0.5 mg/ml hydrocortisone, 5 mg/ml insulin, 16 nM phorbol-12 myristate 13-acetate, 1 ng/ml basic fibroblast growth factor, 20 mg/ml bovine pituitary extract, […], and penicillin/streptomycin (100 U/ml/[…]). All cells were maintained in humidified incubators at 37° C. with 5% CO2.
(§1) Cell viability was measured by the Trypan Blue exclusion method. Briefly, cells washed with PBS were harvested by a 3-minute incubation in 0.05% trypsin before neutralization with serum containing medium. An aliquot of the cell suspension was then mixed 1:1 with a 0.4% Trypan blue solution and viable cells were counted within 5 minutes on Kova slides under an optical microscope. Results are expressed as the mean percentage of control cells±SEM. N=3

[2] = system: A375; assay: Cell viability of A375 melanoma cells by Trypan Blue exclusion; conditions: for viability at 5 µM: Homo sapiens, A-375, viable cells as mean percentage of control cells ± SEM, N=3
Description: The BRAFV600E mutant melanoma line A375 (CRL-1619) was purchased from ATCC (Manassas, VA, USA). The A375 were maintained in glutamine-containing DMEM supplemented with 10% heat-inactivated fetal bovine serum, penicillin (100 units/ml) and streptomycin ([…]).
as §1

[3] = system: NCI 60 cell panel; assay: DTP-NCI assay (NCI 60 cell screen, single high dose); conditions: Homo sapiens, 48 h; single high dose 10^-5 M, full NCI 60 cell panel; growth relative to no-drug control and to time zero number of cells; read-out: DTP-NCI (mean of the percent growth of treated cells)
Description: The effect of 10 μM of MTF504 was monitored on a panel 60 cell lines representing nine distinct tumour types: leukemia, colon, lung, central nervous system, renal, melanoma, ovarian, breast and prostate. Briefly, the compound was sent to the US National Cancer Institute where its antineoplastic effects were monitored on the panel of cell lines after 48 hours of treatment following a standardized protocol.
All compounds submitted to the NCI 60 Cell screen are tested initially at a single high dose (10^-5 M) in the full NCI 60 cell panel. The results are reported as a mean of the percent growth of treated cells. The number reported is growth relative to the no-drug control, and relative to the time zero number of cells. This allows detection of […].

[4] = 24 h, read-out: Viab A375 5 μM/24 h
[5] = 48 h, read-out: Viab A375 5 μM/48 h

Compound	toxicity on normal human melanocytes [1]	viability at 5 µM [2, 4] [%]	viability at 5 µM [2, 5] [%]	decrease of melanoma cell viability versus CRO15 and MTF319 ([2]; after 24 hours of treatment, FIG. 5)	activity at 10 µM [3] [%]
N=C(NC(=O)Nc1ccccc1Cl)Nc1nc2ccccc2s1 [MTF504, N-benzo[d]thiazol-2-yl-N″-(2-chloroaniline-carbonyl)-guanidine]	absence of toxicity	26	7.1	more efficient than previously reported compounds	25.4
Cc1ccccc1NC(=O)NC(=N)Nc1nc(C)c(C)s1 [MTF509, 4,5-dimethylthiazol-2-yl-N″-(2-methylaniline-carbonyl)-guanidine]	–	23	13.6	–	29.3
